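In this assay, cells in 96-well plates receive the compound at five concentrations for 48 hours. Endpoints are linearly interpolated between the surrounding concentrations. Abbreviation: GI50, concentration required for 50% inhibition of growth. The concentration for full growth arrest is given as TGI.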
Legend:
Test in all cases: inhibition of tumour cell growth, NCI panel, 48 h
UO-31 renal = system: UO-31 renal
SF-295 CNS = system: SF-295 CNS
SK-MEL-5 melanoma = system: SK-MEL-5 melanoma
OVCAR-5 ovarian = system: OVCAR-5 ovarian
HCC-2998 colon = system: HCC-2998 colon
HCT-15 colon = system: HCT-15 colon
M14 melanoma = system: M14 melanoma
KM12 colon = system: KM12 colon
UACC-62 melanoma = system: UACC-62 melanoma
MDA-MB-435 = system: MDA-MB-435

Compound | TGI (UO-31 renal) [µM] | TGI (SF-295 CNS) [µM] | TGI (SK-MEL-5 melanoma) [µM] | TGI (OVCAR-5 ovarian) [µM] | TGI (HCC-2998 colon) [µM] | TGI (HCT-15 colon) [µM] | TGI (M14 melanoma) [µM] | TGI (KM12 colon) [µM] | TGI (UACC-62 melanoma) [µM] | TGI (MDA-MB-435) [µM] | GI50 (UO-31 renal) [µM] | GI50 (SF-295 CNS) [µM] | GI50 (SK-MEL-5 melanoma) [µM] | GI50 (OVCAR-5 ovarian) [µM] | GI50 (HCC-2998 colon) [µM] | GI50 (HCT-15 colon) [µM] | GI50 (M14 melanoma) [µM] | GI50 (KM12 colon) [µM] | GI50 (UACC-62 melanoma) [µM] | GI50 (MDA-MB-435) [µM]
NCCCCNC1(c2cc3ccccc3s2)CCCCC1 | 9.94 | 8.83 | 3.63 | 19.2 | 3.1 | 17.7 | 3.8 | 10.7 | 3.79 | 3.49 |  |  |  |  |  |  |  |  |  | 
COc1ccc(C2(C3c4cc(OC)c(OC)cc4CCN3C)SCCCS2)cc1O (configuration not stated) | > 100 | > 100 | > 100 | > 100 | > 100 | > 100 | > 100 | > 100 | > 100 | > 100 |  |  |  |  |  |  |  |  |  | 
O=C(CCCn1ccnc1[N+](=O)[O-])NCCn1ccnc1[N+](=O)[O-] | > 100 | > 100 | > 100 | > 100 | > 100 | > 100 | > 100 | > 100 | > 100 | > 100 |  |  |  |  |  |  |  |  |  | 
COC(=O)CCN(CCC(=O)OC)C1CC1 | > 100 | > 100 | > 100 | > 100 | > 100 | > 100 | > 100 | > 100 | > 100 | > 100 |  |  |  |  |  |  |  |  |  | 
CCCCCCCCC/C=C1\CC(CO)(COC(=O)c2ccccc2)OC1=O (configuration not stated) | 32.8 | 39 | 28.6 | 33.2 | 39.3 | 35.5 | 36.6 | 57.2 | 79.4 | 36.3 |  |  |  |  |  |  |  |  |  | 
O=c1[nH]c2ccccc2c2oc(-c3ccccc3)nc12 | > 100 | 57.6 | > 100 | > 100 | > 100 | > 100 | > 100 | > 100 | > 100 | 38 |  |  |  |  |  |  |  |  |  | 
COC1/C=C/C(C)C(C(C)C(OC)C(C)CCC(=O)C(C)C(C/C=C/N(C)C=O)OC)OC(=O)/C=C/C=C(\C)CC(OC)C(OC)C2=CC(=O)O[C@@H](C(C)C(OC)CC(OC)/C=C/C(C)C(O)C1)[C@H]2O (some centres not stated) | 0.267 | 0.273 | 0.206 | 0.623 | 0.359 | 0.329 | 0.309 | 3.02 | 0.314 | 0.977 |  |  |  |  |  |  |  |  |  | 
COc1ccc2c(c1)-c1oc3ccccc3c(=O)c1CO2 | 88.4 | > 100 | 36.2 | > 100 | > 100 | > 100 | > 100 | > 100 | > 100 | > 100 |  |  |  |  |  |  |  |  |  | 
CCOc1cc(C2SCC(=O)N2c2nc3cc4sc(N5C(=O)CSC5c5ccc(O)c(OCC)c5)nc4cc3s2)ccc1O (configuration not stated) | > 100 | > 100 | > 100 | > 100 | > 100 | > 100 | > 100 | > 100 | > 100 | > 100 |  |  |  |  |  |  |  |  |  | 
Cc1cc(N=C2C=C(Nc3cc(C)on3)C(=O)c3ccccc32)no1 | > 100 | > 100 | 15.9 | > 100 | > 100 | > 100 | > 100 | > 100 | 38.4 | 22.5 |  |  |  |  |  |  |  |  |  | 
CS(=O)(=O)O.[Ag] | 3.52 | > 100 | 18.3 | 35 | 28.8 | 36.5 | 9.44 | 89.8 | 31.8 | 9.78 |  |  |  |  |  |  |  |  |  | 
Nc1nc2cc(CNc3ccc(C(=O)NC(CCC(=O)O)C(=O)O)cc3)ccc2nc1-c1ccccc1 (configuration not stated) | > 10 | > 10 | > 10 | > 10 | > 10 | > 10 | > 10 | > 10 | > 10 | > 10 |  |  |  |  |  |  |  |  |  | 
COc1cc(/C=C/C(=O)OC[C@H](Br)[C@H](OC(C)=O)c2ccc3c(c2)OCO3)cc(OC)c1OC | > 100 | > 100 | > 100 | > 100 | > 100 | > 100 | > 100 | > 100 | > 100 | > 100 |  |  |  |  |  |  |  |  |  | 
O=C(OCc1ccccc1)N1c2cc([N+](=O)[O-])ccc2C(=O)N2CCC[C@H]2C1O (some centres not stated) | > 100 | > 100 | > 100 | > 100 | > 100 | > 100 | > 100 | > 100 | > 100 | > 100 |  |  |  |  |  |  |  |  |  | 
C[C@H](CCC1=NCCN1)[C@H]1CC[C@H]2[C@@H]3CC[C@@H]4C[C@H](O)CC[C@]4(C)[C@H]3C[C@H](O)[C@]12C | 52.6 | 29 | 24.5 | 28.1 | 27.6 | > 100 | 35.6 | 24.1 | 26.3 | 28.9 |  |  |  |  |  |  |  |  |  | 
CCOC(=O)C(NCc1cccc(C(F)(F)F)c1)(NC(=O)c1ccccc1)C(F)(F)F (configuration not stated) | 79.4 | > 100 | > 100 | > 100 | > 100 | > 100 | > 100 | > 100 | 30.9 | 79 |  |  |  |  |  |  |  |  |  | 
Cc1ccc2nc(Cl)c(/C=N/N3C(=O)/C(=C/c4ccc(N(C)C)cc4)N=C3c3ccccc3)cc2c1 | > 100 | > 100 | > 100 | > 100 | > 100 | > 100 | > 100 | > 100 | > 100 | 65.8 |  |  |  |  |  |  |  |  |  | 

Compound | TGI (UO-31 renal) [µM] | TGI (SF-295 CNS) [µM] | TGI (SK-MEL-5 melanoma) [µM] | TGI (OVCAR-5 ovarian) [µM] | TGI (HCC-2998 colon) [µM] | TGI (HCT-15 colon) [µM] | TGI (M14 melanoma) [µM] | TGI (KM12 colon) [µM] | TGI (UACC-62 melanoma) [µM] | TGI (MDA-MB-435) [µM] | GI50 (UO-31 renal) [µM] | GI50 (SF-295 CNS) [µM] | GI50 (SK-MEL-5 melanoma) [µM] | GI50 (OVCAR-5 ovarian) [µM] | GI50 (HCC-2998 colon) [µM] | GI50 (HCT-15 colon) [µM] | GI50 (M14 melanoma) [µM] | GI50 (KM12 colon) [µM] | GI50 (UACC-62 melanoma) [µM] | GI50 (MDA-MB-435) [µM]
COc1ccc2c(c1)CC[C@@H]1[C@@H]2CC[C@]2(C)C(=O)/C(=C/c3cc(OC)c(OC)c(OC)c3)C[C@@H]12 | > 100 | 74.6 | > 100 | 62.4 | > 100 | > 100 | 41.2 | 82.9 | > 100 | > 100 |  |  |  |  |  |  |  |  |  | 
CC(C)(C)OC(=O)NCC(=O)N1CCCN(C(=O)CNC(=O)OC(C)(C)C)CC1 | > 100 | > 100 | > 100 | > 100 | > 100 | > 100 | > 100 | > 100 | > 100 | > 100 |  |  |  |  |  |  |  |  |  | 
CCC(C)C1(O)OC2CC3(C)OC(=CC3=O)/C(C)=C\C3OC(=O)C1(C)C32 (configuration not stated) | 47.4 | 60.9 | 23.1 | > 100 | 30.1 | 17.3 | > 100 | 24.7 | 35.3 | > 100 |  |  |  |  |  |  |  |  |  | 
C/C(N=Nc1nc2ccccc2o1)=C1/C=CC=CN1O | > 100 | 10.1 | > 100 | 28.1 | 24.5 | > 100 | > 100 | > 100 | > 100 | > 100 |  |  |  |  |  |  |  |  |  | 
Nc1ccc(-n2c(=O)oc3ccc(Cl)cc3c2=O)c(Cl)c1 | 0.533 | 2.8 | 0.136 | > 100 | 2.65 | 21.6 | 0.68 | 0.908 | 0.22 | 0.883 | 0.0872 | 1.07 | 0.048 | 0.467 | 0.377 | 0.138 | 0.104 | 0.255 | 0.0527 | 0.113
CC1CCC2(CC1)N=C1CCC(C)CC1C1(CCC(C)CC1)N2 (configuration not stated) | > 100 | > 100 | > 100 | > 100 | > 100 | > 100 | > 100 | > 100 | > 100 | > 100 |  |  |  |  |  |  |  |  |  | 
NC(=O)CS(=O)CC(N)C(=O)O (configuration not stated) | > 100 | > 100 | > 100 | > 100 | > 100 | > 100 | > 100 | > 100 | > 100 | > 100 |  |  |  |  |  |  |  |  |  | 
COc1cc(-c2nc3nc(N4CCN(C)CC4)ccc3[nH]2)c(OC)c2[nH]c(COC(C)=O)nc12 | 85.2 | > 100 | 35.6 | > 100 | 30.6 | > 100 | 34.4 | 83.3 | > 100 | > 100 |  |  |  |  |  |  |  |  |  | 
CC(C)(NC1=NCCO1)c1ccccc1 | > 100 | > 100 | > 100 | > 100 | > 100 | > 100 | > 100 | > 100 | > 100 | > 100 |  |  |  |  |  |  |  |  |  | 
C/C=C\C(CC(=O)NCCC1CN(C(=O)c2ccccc2)c2ccccc21)CC(=O)OC (configuration not stated) | > 100 | > 100 | > 100 | > 100 | > 100 | > 100 | > 100 | > 100 | > 100 | > 100 |  |  |  |  |  |  |  |  |  | 
Cc1n(CC(=O)c2ccccc2)nc2sc(N)n[n+]12 | > 100 | > 100 | > 100 | > 100 | > 100 | > 100 | > 100 | > 100 | 37.4 | > 100 |  |  |  |  |  |  |  |  |  | 
O=C1C(N=Nc2ccc(-c3nc4ccccc4[nH]3)cc2)NC(=S)N1c1ccccc1 (configuration not stated) | > 100 | > 100 | > 100 | > 100 | 41.7 | 43.8 | > 100 | 37.5 | > 100 | > 100 |  |  |  |  |  |  |  |  |  | 
CC(C)(C)c1cc(C2COC(=O)COCC(=O)OCCOCCOCCO2)cc(C(C)(C)C)c1O (configuration not stated) | 35.7 | 58.5 | > 100 | > 100 | 27.9 | > 100 | 41.3 | > 100 | > 69.1 | 43 |  |  |  |  |  |  |  |  |  | 
O=C(NN1C(=O)C=CC1=O)c1ccccc1Nc1ccccc1C(=O)NN1C(=O)C=CC1=O | > 100 | > 100 | > 100 | > 100 | > 100 | > 100 | > 100 | > 100 | > 100 | > 100 |  |  |  |  |  |  |  |  |  | 
O=C(Nc1cccc(-n2ccc3c(NC(=O)c4ccccc4)nccc32)c1)c1cc(N2CCOCC2)cc(C(F)(F)F)c1 | > 100 | 2.16 | 0.249 | > 100 | > 100 |  |  |  | > 44.2 | 0.0688 | 0.754 | 0.039 | 0.0671 | 0.696 | 0.462 | 0.0395 | 0.125 | 0.0628 | 0.0511 | 0.0253
COc1cc2c(cc1Cl)n([O-])c(C#N)c(N1CCN(c3ccc([N+](=O)[O-])cc3)CC1)[n+]2=O | > 100 | > 100 | > 59.6 | > 100 | 78.8 | > 100 | > 100 | > 100 | > 72.9 | > 100 |  |  |  |  |  |  |  |  |  | 
